Source: patent EP4800013A1, “PARG INHIBITOR” (Shanghai Qilu Pharmaceutical Research and Development …, priority 2023, dated 2025)

target: T1, PARG (Homo sapiens, UniProt Q86W56); test: Enzymatic inhibitory activity against PARG, HTRF assay; assay type: biochemical; conditions: HTRF; PARylated PARP1 protein as substrate; 60 minutes at room temperature; read-out: IC50 against PARG enzyme
T1 construct: made in house
Method: In this experiment, the enzymatic inhibitory activity of the compounds of the present disclosure against PARG was determined using an HTRF (homogeneous time-resolved fluorescence) assay.
HTRF assay reagents were purchased from PerkinElmer (Cat. Nos. 61HISTLB and 610SAXLB). The purified protein was prepared in-house.
PARG enzyme reaction buffer: 50 mM Tris (pH 7.4), 0.1 mg/mL BSA, 3 mM EDTA, 0.4 mM EGTA, 1 mM DTT, 50 mM KCl, and 0.01% Tween 20.
• 1) Using an ultra-micro pipette, the compounds of the present disclosure were serially diluted (starting at 10 µM with 3- to 5-fold serial dilutions) and added to a 384-well reaction plate, with each concentration tested in duplicate wells. Control group 1 was added with 10 µM control compound (100% inhibition group). Control group 2 was added with DMSO (0% inhibition group). After compound addition, the 384-well plate was centrifuged at 1000 rpm for 1 minute. • 2) 2.5 µL of PARG protein was added to each well and incubated with the compounds of the present disclosure at room temperature for 15 minutes, followed by centrifugation at 1000 rpm for 1 minute. • 3) 2.5 µL of PARylated PARP1 protein was added to each well and incubated at room temperature for 60 minutes, followed by centrifugation at 1000 rpm for 1 minute. • 4) 5 µL of His-Tb & SA-XL665 HTRF assay reagents were added to each well and incubated at room temperature for 60 minutes, followed by centrifugation at 1000 rpm for 1 minute. • 5) […] were measured using a PHERAstar FSX microplate reader from BMG. • 6) Data analysis was performed using GraphPad Prism 8. The IC50 values of the compounds of the present disclosure were calculated as follows. […] The average value of duplicate wells in control group 2 (0% inhibition group) was set as the relative inhibition rate of 0%. The HTRF signal values were converted into relative inhibition rates. The IC50 values of the compounds were calculated by fitting the data to a four-parameter logistic model. Table 15: Enzymatic inhibitory activity of the compounds of the present disclosure against PARG

T1 sequence (Q86W56 whole entry): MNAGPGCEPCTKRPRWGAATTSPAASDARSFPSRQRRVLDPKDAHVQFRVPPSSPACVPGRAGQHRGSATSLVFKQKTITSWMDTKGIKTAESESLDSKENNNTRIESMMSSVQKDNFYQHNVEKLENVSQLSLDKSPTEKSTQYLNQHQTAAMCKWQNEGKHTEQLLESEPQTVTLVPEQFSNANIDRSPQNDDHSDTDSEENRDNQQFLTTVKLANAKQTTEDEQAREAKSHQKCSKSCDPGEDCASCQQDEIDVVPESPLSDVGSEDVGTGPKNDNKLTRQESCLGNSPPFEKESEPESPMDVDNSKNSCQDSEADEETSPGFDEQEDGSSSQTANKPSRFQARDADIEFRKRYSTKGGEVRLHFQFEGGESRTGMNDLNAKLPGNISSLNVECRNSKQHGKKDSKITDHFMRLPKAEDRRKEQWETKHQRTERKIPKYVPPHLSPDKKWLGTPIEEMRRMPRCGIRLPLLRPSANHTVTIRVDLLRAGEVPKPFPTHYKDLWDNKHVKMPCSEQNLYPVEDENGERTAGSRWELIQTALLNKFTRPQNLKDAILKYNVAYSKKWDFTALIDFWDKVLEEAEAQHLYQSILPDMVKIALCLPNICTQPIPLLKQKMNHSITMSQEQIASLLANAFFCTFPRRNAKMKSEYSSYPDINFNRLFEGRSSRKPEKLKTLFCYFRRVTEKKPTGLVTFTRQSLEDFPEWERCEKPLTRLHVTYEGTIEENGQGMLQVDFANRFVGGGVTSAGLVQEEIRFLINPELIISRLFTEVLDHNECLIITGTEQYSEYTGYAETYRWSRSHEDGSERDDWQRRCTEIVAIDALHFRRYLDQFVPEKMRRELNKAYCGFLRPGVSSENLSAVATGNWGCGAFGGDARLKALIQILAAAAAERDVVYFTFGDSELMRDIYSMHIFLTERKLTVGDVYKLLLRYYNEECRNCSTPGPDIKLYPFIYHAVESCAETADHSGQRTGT

First: CC(C)C(=O)N1CCN(c2cc(S(=O)(=O)NC3(C#N)CC3)cc3c2n(C2CC2)c(=O)n3-c2nnc(C(F)F)s2)CC1 [Compound A055]
Second: CC(C)S(=O)(=O)N1CCN(c2cc(S(=O)(=O)NC3(C#N)CC3)cc3c2n(C2CC2)c(=O)n3-c2nnc(C(F)F)s2)CC1 [Compound A056]
The IC50 of the first is 2.3-fold higher: 11.9 nM for the first, 5.2 nM for the second. The second is the more potent here.

Going from `CC(C)n1c(=O)n(-c2nnc(C(F)F)s2)c2cc(S(=O)(=O)NC3(C)CC3)cc(N3CCN(C(=O)N(C)C)CC3)c21` [Compound A018] to `CN(C)C(=O)N1CCN(c2cc(S(=O)(=O)NC3(C#N)CC3)cc3c2n(CC(F)(F)F)c(=O)n3-c2nnc(C(F)F)s2)CC1` [Compound A044], the IC50 falls from 34.1 nM to 7 nM (4.9-fold).

`C[C@H]1CN(c2cc(S(=O)(=O)NC3(C)CC3)cc3c2ncn3-c2nnc(C(F)F)s2)C[C@H](C)N1` [Compound B004] and `C[C@H]1CN(c2cc(S(=O)(=O)NC3(C)CC3)cc3c2ncn3-c2nnc(C(F)F)s2)C[C@H](C)N1C(=O)N(C)C` [Compound B005] are within 1.5-fold of each other in IC50: 15.6 nM for the first, 11.5 nM for the second.

`C[C@H]1CN(c2cc(S(=O)(=O)NC3(C#N)CC3)cc3c2nc(C2CCCO2)n3-c2nnc(C(F)F)s2)C[C@H](C)N1` (some centres unmarked) [Compound 077J] and `C[C@H]1CN(c2cc(S(=O)(=O)NC3(C)COC3)cc3c2nc(C2CCCO2)n3-c2nnc(C(F)F)s2)C[C@H](C)N1` (some centres unmarked) [Compound 077K] are within 1.5-fold of each other in IC50: 10.4 nM for the first, 12.8 nM for the second.

`C=CCn1c(=O)n(-c2nnc(C(F)F)s2)c2cc(S(=O)(=O)NC3(C#N)CC3)cc(N3CCN(C(=O)C4CCC(=O)N4)CC3)c21` (centres unmarked) [Compound 076G] and `C=CCn1c(=O)n(-c2nnc(C(F)F)s2)c2cc(S(=O)(=O)NC3(C#N)CC3)cc(N3CCN(C(=O)C4CCCN4)CC3)c21` (centres unmarked) [Compound 076C] are within 1.5-fold of each other in IC50: 9 nM for the first, 8.6 nM for the second.

First: C=CCn1c(=O)n(-c2nnc(C(F)F)s2)c2cc(S(=O)(=O)NC3(C#N)CC3)cc(N3CCN(C(=O)[C@@H]4CCC5(CC5)N4)CC3)c21 [Compound 076F1]
Second: C=CCn1c(=O)n(-c2nnc(C(F)F)s2)c2cc(S(=O)(=O)NC3(C#N)CC3)cc(N3CCN(C(=O)C4CCCN4C)CC3)c21 (centres unmarked) [Compound 076D]
The IC50 of the first is 2.1-fold higher: 30.6 nM for the first, 14.7 nM for the second. The second is the more potent here.

`CN(C)C(=O)N1CC=C(c2cc(S(=O)(=O)NC3(C#N)CC3)cc3c2ncn3-c2nnc(C(F)F)s2)CC1` [Compound B022] and `CC(C)C(=O)N1CC=C(c2cc(S(=O)(=O)NC3(C#N)CC3)cc3c2ncn3-c2nnc(C(F)F)s2)CC1` [Compound B023] are within 1.5-fold of each other in IC50: 18.7 nM for the first, 16.7 nM for the second.

Going from `C[C@H]1CN(c2cc(S(=O)(=O)NC3(C)CC3)cc3c2n2ccnc2n3-c2nnc(C(F)F)s2)C[C@H](C)N1` [Compound B024] to `C[C@H]1CN(c2cc(S(=O)(=O)NC3(C)CC3)cc3c2c2nccnc2n3-c2nnc(C(F)F)s2)C[C@H](C)N1` [Compound H001], the IC50 falls from 16.5 nM to 1.1 nM (15-fold).

Going from `C[C@H]1CN(c2cc(S(=O)(=O)NC3(C)CC3)cc3c2nc([C@@H]2CC4(CC4)CO2)n3-c2nnc(C(F)F)s2)C[C@H](C)N1` [Compound 079M2] to `C[C@H]1CN(c2cc(S(=O)(=O)NC3(C)CC3)cc3c2nc(C2CNCCO2)n3-c2nnc(C(F)F)s2)C[C@H](C)N1` (some centres unmarked) [Compound 077Y], the IC50 rises from 1.9 nM to 10.3 nM (5.4-fold).

`C=CCn1c(=O)n(-c2nnc(C(F)F)s2)c2cc(S(=O)(=O)NC3(C#N)CC3)cc(N3CCN(C(=O)NC)CC3)c21` [Compound 067M] and `C=CCn1c(=O)n(-c2nnc(C(F)F)s2)c2cc(S(=O)(=O)NC3(C#N)CC3)cc(N3CCN(C(=O)NC4CC4)CC3)c21` [Compound A054] are within 1.5-fold of each other in IC50: 29 nM for the first, 38.6 nM for the second.

First: CC(C)C(=O)N1CCN(c2cc(S(=O)(=O)NC3(C#N)CC3)cc3c2n(CC#N)c(=O)n3-c2nnc(C(F)F)s2)CC1 [Compound 074J]
Second: C=CCn1c(=O)n(-c2nnc(C(F)F)s2)c2cc(S(=O)(=O)NC3(C#N)CC3)cc(N3CCN(C(=O)C(C)C)[C@H](C)C3)c21 [Compound 069D]
The IC50 of the first is 2.2-fold lower: 10.8 nM for the first, 23.5 nM for the second. The first is the more potent here.

First: CC(C)S(=O)(=O)N1CCN(c2cc(S(=O)(=O)NC3(C#N)CC3)cc3c2nc(OC2CC2)n3-c2nnc(C(F)F)s2)CC1 [Compound 057P]
Second: CC(C)(O)C(=O)N1CCN(c2cc(S(=O)(=O)NC3(C#N)CC3)cc3c2ncn3-c2nnc(C(F)F)s2)CC1 [Compound B015]
The IC50 of the first is 1.9-fold higher: 29.3 nM for the first, 15.8 nM for the second. The second is the more potent here.

`C=CCn1c(=O)n(-c2nnc(C(F)F)s2)c2cc(S(=O)(=O)NC3(C#N)CC3)cc(N3CCN(S(=O)(=O)c4ccn(C)n4)CC3)c21` [Compound 075B] and `C=CCn1c(=O)n(-c2nnc(C(F)F)s2)c2cc(S(=O)(=O)NC3(C#N)CC3)cc(N3CCN(c4ncc[nH]4)CC3)c21` [Compound 067JD] are within 1.5-fold of each other in IC50: 35.7 nM for the first, 31.6 nM for the second.

`C=CCn1c(=O)n(-c2nnc(C(F)F)s2)c2cc(S(=O)(=O)NC3(C#N)CC3)cc(N3CCN(C(=O)C4(C)CCCN4)CC3)c21` (centres unmarked) [Compound 076B] and `C=CCn1c(=O)n(-c2nnc(C(F)F)s2)c2cc(S(=O)(=O)NC3(C#N)CC3)cc(N3CCN(C(=O)C(C)(C)NC(=O)OC)CC3)c21` [Compound 076A] are within 1.5-fold of each other in IC50: 9.7 nM for the first, 13 nM for the second.

`C[C@H]1CN(c2cc(S(=O)(=O)NC3(C)CC3)cc3c2nc(C2CCOC2)n3-c2nnc(C(F)F)s2)C[C@H](C)N1` (some centres unmarked) [Compound 079N] and `C[C@H]1CN(c2cc(S(=O)(=O)NC3(C)CC3)cc3c2cc(N=S(C)(C)=O)n3-c2nnc(C(F)F)s2)C[C@H](C)N1` [Compound 082E] are within 1.5-fold of each other in IC50: 6.2 nM for the first, 5.5 nM for the second.

system: KURAMOCHI cells; test: Inhibition of proliferation of KURAMOCHI cells (CellTiter-Glo, intracellular ATP); assay type: cell-based; conditions: 168 h, incubated for 7 days, read-out: IC50 against KURAMOCHI cells
Method: In this experiment, the inhibitory effect of the compounds of the present disclosure on the proliferation of the cancer cell line KURAMOCHI was evaluated by measuring intracellular ATP levels using a bioluminescent assay, and the half maximal inhibitory concentration (IC50) was determined.
RPMI 1640 medium (Cat. No. 11875-093), fetal bovine serum (10099-141), and 100× Pen/Strep (15070-063) were purchased from GIBCO. CellTiter-Glo Luminescent Cell Viability Assay reagent (Cat. No. G7573) was purchased from Promega.
• 1) Day 1: KURAMOCHI cells were counted using a cell counter and seeded into a 96-well culture plate at a density of 4000 cells per well in 100 µL medium. The plate was incubated overnight in an incubator (37°C, 5% CO2). • 2) Day 2: Using a D300e digital dispenser (TECAN), 500 nL of serially diluted test compounds of the present disclosure (starting at 10 µM, a total of 9 concentrations, 1:4 dilution) were added to the cells in the culture plate. The final concentration of DMSO was 0.5%. The cell culture plate was incubated for 7 days in a cell culture incubator (37°C, 5% CO2). Control group 1 received only medium and DMSO (100% inhibition group). Control group 2 received only DMSO (0% inhibition group). The final concentration of DMSO in both groups was 0.5%. • 3) Day 9: 100 µL of CellTiter-Glo reagent was added to each well. The plate was shaken at 500 rpm for 2 minutes, centrifuged at 1000 rpm for 1 minute, and then incubated at room temperature in the dark for 10 minutes to stabilize the luminescence signal. • 4) Luminescence signals were measured using an EnVision microplate reader (PerkinElmer). • 5) Data analysis was performed using GraphPad Prism 8. The IC50 values of the compounds of the present disclosure were calculated as follows. The CTG signal values were analyzed. The average inhibition rate of control group 1 (100% inhibition group) was set as the relative inhibition rate of 100%. The average inhibition rate of control group 2 (0% inhibition group) was set as the relative inhibition rate of 0%. The CTG signal values were converted into relative inhibition rates. The inhibition percentage (inhibition%) for each concentration of the compounds of the present disclosure was calculated according to the following formula: Inhibition% = (b−x)/(b−a)*100%; [formula] • a = CTG value (highest concentration), b = CTG value (blank well), x = CTG value (test well). • IC50 was calculated using GraphPad Prism 8. • (1) The concentration and inhibition rate corresponding to each well were recorded. Statistical calculation was performed using Log10 (compound concentration). • (2) The data were input into GraphPad Prism 8 and Analysis was selected. • (3) Nonlinear regression (curve fit) was selected. • (4) Log (inhibitor) vs. response - Variable slope was selected. • (5) The calculation formula was selected, and the calculation was performed according to the following formula: Y = Bottom + (Top - Bottom) / (1 + 10 ^ ((LogIC50 - X) * HillSlope)); X: log of dose or concentration; Y: response; Top and Bottom: maximum and minimum response. • (6) The IC50 values were calculated by fitting the data. Table 16: Inhibitory effect of the compounds of the present disclosure on the proliferation of KURAMOCHI cells

Going from `CC(C)n1c(=O)n(-c2nnc(C(F)F)s2)c2cc(S(=O)(=O)NC3(C)CC3)cc(N3CCN(C(=O)N(C)C)CC3)c21` [Compound A018] to `C=CCn1c(=O)n(-c2nnc(C(F)F)s2)c2cc(S(=O)(=O)NC3(C#N)CC3)cc(N3CCN(C(=O)C4CC(F)(F)C4)CC3)c21` [Compound 072D], the IC50 rises from 7 nM to 52 nM (7.4-fold).

First: C[C@H]1CN(c2cc(S(=O)(=O)NC3(C)CC3)cc3c2nc(-c2nccs2)n3-c2nnc(C(F)F)s2)C[C@H](C)N1 [Compound 077S]
Second: C[C@H]1CN(c2cc(S(=O)(=O)NC3(C)CC3)cc3c(-c4nnc(C(F)F)s4)noc23)C[C@H](C)N1 [Compound 021B]
The IC50 of the first is 5.3-fold higher: 58 nM for the first, 11 nM for the second. The second is the more potent here.

First: C=C[C@H]1CN(c2cc(S(=O)(=O)NC3(C)CC3)cc3c2cnn3-c2nnc(C(F)F)s2)C[C@H](C=C)N1 [Compound 078C]
Second: C=CC1CN(c2cc(S(=O)(=O)NC3(C)CC3)cc3c2cnn3-c2nnc(C(F)F)s2)C[C@H](C)N1 (some centres unmarked) [Compound 078A]
The IC50 of the first is 2-fold lower: 15 nM for the first, 30 nM for the second.

Compared with `C#CC1CN(c2cc(S(=O)(=O)NC3(C)CC3)cc3c2cnn3-c2nnc(C(F)F)s2)C[C@H](C)N1` (some centres unmarked) [Compound 078B], `C=CCn1c(=O)n(-c2nnc(C(F)F)s2)c2cc(S(=O)(=O)NC3(C#N)CC3)cc(N3CC4CC3CN4S(=O)(=O)C(C)C)c21` (centres unmarked) [Compound 069E] is 1.6-fold higher in IC50: 34 nM for the first, 55 nM for the second. The first is the more potent here.
